Experiments:
[1] = biological target: EGFR^Del19/T790M/C797S (Homo sapiens, UniProt P00533, C797S/DEL746-750/T790M); assay: EGFR inhibitory activity assay (TK-substrate-biotin/ATP, 665/615 ratio); format: biochemical; details: kinase inhibition
Protocol: EGFR Inhibitory Activity Assay
(2) The plate was sealed, and centrifuged at 1,000 g for 1 min;
(4) 5 μl of the 2×EGFR protein working solution was added to the 384-well plate from step (2), centrifuged at 1,000 g for 30 s, and allowed to stand at room temperature (mixed thoroughly) for 10 min;
(6) 5 µL of the TK-substrate-biotin and ATP (the mixture prepared in step (5)) was added to the 384-well plate from step (4) to initiate the reaction;
(7) The mixture was centrifuged at 1,000 g for 30 s; the plate was sealed, and allowed to stand (and reacted) at room temperature for 40 min;
(10) The mixture was centrifuged at 1,000 g for 30 s, and allowed to stand (reacted) at room temperature for 1 h;
(§1) Formula of inhibition rate (%): […]
(§2) The nonlinear regression curve (dose response-variable slope) between the value of inhibition rate (%) and the logarithm of compound concentration was fitted with graphpad prism 8.0, the effect dose curve of compound was drawn, and the IC50 value was calculated.

[2] = biological target: ALK^G1202R (Homo sapiens, UniProt Q9UM73, G1202R); assay: Assay of activity on ALK kinase; format: biochemical; details: kinase inhibition
Protocol: (§3) Assay of activity on ALK kinase
(§4) (1) A compound stock solution was prepared;
(§5) (2) The compound stock solution was diluted 3× to obtain a compound dilution;
(§6) (5) 5 μl of the 2× kinase working solution was added to the reaction plate, centrifuged at 1,000 rpm for 1 min, and incubated at 25° C. for 15 min;
(§7) (7) 5 μl of the TK-substrate-biotin and ATP (the mixture prepared in step (6)) was added to initiate the reaction;
(§8) (8) The mixture was centrifuged at 1,000 g for 30 s; the plate was sealed, and incubated at 25° C. for 60 min;
(§9) (11) The mixture was centrifuged at 1,000 g for 1 min, and incubated at 25° C. for 60 min;
as §1, §2
(§10) Y=Bottom+(Top−Bottom)/(1+10^((LogIC50−X)*Hill Slope))
(§11) X-axis: logarithm of compound concentration; Y axis: inhibition rate ([…])

[3] = biological target: ALK (Homo sapiens, UniProt Q9UM73); assay: Assay of activity on ALK kinase; format: biochemical; details: kinase inhibition
Protocol: as §3, §4, §5, §6, §7, §8, §9, §1, §2, §10, §11

[4] = biological target: Ba/F3(EGFR^L858R/T790M/C797S) cells (Homo sapiens, UniProt P00533, T790M/C797S/L858R, cells depend on it); assay: Assay of activity on Ba/F3 cells (CTG, 72 h); format: cell-based; details: read-out: IC50 (nM) Ba/F3 (EGFR^L858R/T790M/C797S)
Outline: (§12)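 Ba/F3 cells dependent on each EGFR triple mutant were exposed to 3-fold compound dilutions for 72 h at 37° C, 5% CO2, with CellTiter-Glo luminescence as the read-out.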

[5] = biological target: Ba/F3(EGFR^Del19/T790M/C797S) cells (Homo sapiens, UniProt P00533, DEL746-750/T790M/C797S, cells depend on it); assay: Assay of activity on Ba/F3 cells (CTG, 72 h); format: cell-based; details: read-out: IC50 (nM) Ba/F3 (EGFR^Del19/T790M/C797S)
Outline: as §12

[6] = biological target: T1, Ba/F3(EML4-ALK) cells (Homo sapiens, UniProt Q9UM73); assay: Assay of activity on Ba/F3(EML4-ALK) cells (CTG, 72 h); format: cell-based; details: read-out: IC50 (nM) Ba/F3(EML4-ALK)
T1 construct: fused on or other part: Q9HC35 (Echinoderm microtubule-associated protein-like 4)
Outline: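 Ba/F3(EML4-ALK) cells, 700 per well, were exposed to 3-fold serial compound dilutions for 72 h at 37° C, 5% CO2, and viability was then read by CTG luminescence.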

[7] = biological target: EGFR^L858R/T790M/C797S (Homo sapiens, UniProt P00533, C797S/L858R/T790M); assay: EGFR inhibitory activity assay (TK-substrate-biotin/ATP, 665/615 ratio); format: biochemical; details: kinase inhibition
Outline: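 HTRF kinase assay: enzyme preincubated with compound 10 min at room temperature, then reacted with biotinylated TK substrate and ATP for 40 min at room temperature.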

Sequence of ALK^G1202R (Q9UM73 19-1620 G1202R): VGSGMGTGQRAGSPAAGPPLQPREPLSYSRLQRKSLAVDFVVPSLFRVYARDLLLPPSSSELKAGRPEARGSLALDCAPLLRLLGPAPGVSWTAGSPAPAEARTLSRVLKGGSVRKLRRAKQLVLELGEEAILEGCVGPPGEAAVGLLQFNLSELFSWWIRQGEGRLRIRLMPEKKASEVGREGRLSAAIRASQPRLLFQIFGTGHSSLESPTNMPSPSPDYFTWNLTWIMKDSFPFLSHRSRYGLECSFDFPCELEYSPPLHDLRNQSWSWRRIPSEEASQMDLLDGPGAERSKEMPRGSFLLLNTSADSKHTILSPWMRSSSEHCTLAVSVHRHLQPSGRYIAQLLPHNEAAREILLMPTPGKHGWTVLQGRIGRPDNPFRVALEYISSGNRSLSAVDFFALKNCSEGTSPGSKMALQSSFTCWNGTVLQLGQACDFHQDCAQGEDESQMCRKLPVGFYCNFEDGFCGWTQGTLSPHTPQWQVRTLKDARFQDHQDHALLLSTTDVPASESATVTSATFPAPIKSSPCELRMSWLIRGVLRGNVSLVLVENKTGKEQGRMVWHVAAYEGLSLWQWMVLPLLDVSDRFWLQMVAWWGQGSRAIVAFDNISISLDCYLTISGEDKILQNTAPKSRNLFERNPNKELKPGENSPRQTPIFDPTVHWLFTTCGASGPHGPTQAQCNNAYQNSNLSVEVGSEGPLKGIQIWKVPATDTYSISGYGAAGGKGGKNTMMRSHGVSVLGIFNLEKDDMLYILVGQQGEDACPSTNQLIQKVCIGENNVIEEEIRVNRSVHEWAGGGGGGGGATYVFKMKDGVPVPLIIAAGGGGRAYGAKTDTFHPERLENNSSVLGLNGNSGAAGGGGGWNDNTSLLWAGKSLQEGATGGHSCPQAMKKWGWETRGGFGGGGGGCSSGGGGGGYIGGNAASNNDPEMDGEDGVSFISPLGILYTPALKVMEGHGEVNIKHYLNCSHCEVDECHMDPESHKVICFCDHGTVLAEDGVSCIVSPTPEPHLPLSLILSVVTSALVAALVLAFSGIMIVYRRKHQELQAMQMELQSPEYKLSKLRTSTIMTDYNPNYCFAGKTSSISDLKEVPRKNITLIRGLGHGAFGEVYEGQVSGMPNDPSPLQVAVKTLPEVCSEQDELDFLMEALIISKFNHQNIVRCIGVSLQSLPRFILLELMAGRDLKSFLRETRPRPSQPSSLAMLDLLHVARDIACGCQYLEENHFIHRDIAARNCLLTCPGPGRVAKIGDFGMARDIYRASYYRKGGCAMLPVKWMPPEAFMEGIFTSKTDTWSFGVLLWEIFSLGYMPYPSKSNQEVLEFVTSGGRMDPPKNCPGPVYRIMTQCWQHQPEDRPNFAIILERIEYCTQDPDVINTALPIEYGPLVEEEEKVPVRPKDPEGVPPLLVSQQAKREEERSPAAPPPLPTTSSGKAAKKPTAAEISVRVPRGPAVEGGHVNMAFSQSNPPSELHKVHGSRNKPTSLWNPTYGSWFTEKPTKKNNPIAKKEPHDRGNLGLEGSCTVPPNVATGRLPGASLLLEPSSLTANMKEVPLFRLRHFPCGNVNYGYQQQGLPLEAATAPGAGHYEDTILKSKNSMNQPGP
Sequence of EGFR^Del19/T790M/C797S (P00533 with tags, fused parts or gaps DEL746-750/T790M/C797S): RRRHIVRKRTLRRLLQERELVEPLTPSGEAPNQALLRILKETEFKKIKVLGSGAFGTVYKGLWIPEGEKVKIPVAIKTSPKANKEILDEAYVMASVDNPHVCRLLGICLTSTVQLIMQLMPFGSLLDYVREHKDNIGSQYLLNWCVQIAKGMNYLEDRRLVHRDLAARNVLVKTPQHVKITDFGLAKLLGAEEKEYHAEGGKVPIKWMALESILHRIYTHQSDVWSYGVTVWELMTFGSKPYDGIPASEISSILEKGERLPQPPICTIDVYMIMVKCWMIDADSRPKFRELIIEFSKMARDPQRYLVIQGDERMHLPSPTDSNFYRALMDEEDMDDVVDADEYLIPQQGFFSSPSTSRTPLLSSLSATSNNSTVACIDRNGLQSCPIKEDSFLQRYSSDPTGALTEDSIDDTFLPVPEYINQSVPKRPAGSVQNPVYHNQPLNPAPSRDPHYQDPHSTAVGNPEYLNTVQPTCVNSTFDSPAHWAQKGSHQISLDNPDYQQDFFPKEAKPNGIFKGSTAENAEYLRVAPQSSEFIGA
Sequence of Ba/F3(EGFR^Del19/T790M/C797S) cells (P00533 with tags, fused parts or gaps DEL746-750/T790M/C797S): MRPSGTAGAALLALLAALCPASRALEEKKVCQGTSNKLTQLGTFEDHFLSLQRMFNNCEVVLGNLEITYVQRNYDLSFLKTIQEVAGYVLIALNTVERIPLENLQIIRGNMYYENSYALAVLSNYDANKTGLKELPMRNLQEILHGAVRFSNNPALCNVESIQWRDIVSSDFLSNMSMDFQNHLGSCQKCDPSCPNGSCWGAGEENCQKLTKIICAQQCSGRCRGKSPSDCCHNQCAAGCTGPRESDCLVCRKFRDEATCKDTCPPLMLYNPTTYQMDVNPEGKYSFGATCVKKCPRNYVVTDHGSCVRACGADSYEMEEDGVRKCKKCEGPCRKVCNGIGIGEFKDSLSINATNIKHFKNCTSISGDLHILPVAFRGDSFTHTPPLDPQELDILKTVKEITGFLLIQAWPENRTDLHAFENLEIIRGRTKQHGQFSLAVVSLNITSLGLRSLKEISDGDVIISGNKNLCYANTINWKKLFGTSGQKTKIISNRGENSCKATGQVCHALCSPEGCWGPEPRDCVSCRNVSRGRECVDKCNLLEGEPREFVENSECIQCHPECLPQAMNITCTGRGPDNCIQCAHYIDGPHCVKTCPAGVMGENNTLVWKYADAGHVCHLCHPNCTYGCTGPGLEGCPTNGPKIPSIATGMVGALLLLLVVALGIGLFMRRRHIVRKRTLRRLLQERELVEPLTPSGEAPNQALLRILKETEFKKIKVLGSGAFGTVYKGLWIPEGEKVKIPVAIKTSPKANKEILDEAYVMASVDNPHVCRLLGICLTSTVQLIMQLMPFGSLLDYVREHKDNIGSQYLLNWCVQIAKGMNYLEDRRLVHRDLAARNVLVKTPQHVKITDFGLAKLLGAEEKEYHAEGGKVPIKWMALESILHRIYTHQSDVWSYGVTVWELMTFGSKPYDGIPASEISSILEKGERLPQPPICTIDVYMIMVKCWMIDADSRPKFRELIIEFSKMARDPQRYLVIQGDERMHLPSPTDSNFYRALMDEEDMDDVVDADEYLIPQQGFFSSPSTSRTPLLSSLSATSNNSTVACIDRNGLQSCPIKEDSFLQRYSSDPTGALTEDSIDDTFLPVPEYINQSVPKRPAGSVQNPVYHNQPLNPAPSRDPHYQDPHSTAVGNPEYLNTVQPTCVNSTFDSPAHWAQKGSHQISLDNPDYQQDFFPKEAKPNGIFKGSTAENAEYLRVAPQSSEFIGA
T1 sequence (Q9UM73 whole entry, change not shown, the tested form may be a part): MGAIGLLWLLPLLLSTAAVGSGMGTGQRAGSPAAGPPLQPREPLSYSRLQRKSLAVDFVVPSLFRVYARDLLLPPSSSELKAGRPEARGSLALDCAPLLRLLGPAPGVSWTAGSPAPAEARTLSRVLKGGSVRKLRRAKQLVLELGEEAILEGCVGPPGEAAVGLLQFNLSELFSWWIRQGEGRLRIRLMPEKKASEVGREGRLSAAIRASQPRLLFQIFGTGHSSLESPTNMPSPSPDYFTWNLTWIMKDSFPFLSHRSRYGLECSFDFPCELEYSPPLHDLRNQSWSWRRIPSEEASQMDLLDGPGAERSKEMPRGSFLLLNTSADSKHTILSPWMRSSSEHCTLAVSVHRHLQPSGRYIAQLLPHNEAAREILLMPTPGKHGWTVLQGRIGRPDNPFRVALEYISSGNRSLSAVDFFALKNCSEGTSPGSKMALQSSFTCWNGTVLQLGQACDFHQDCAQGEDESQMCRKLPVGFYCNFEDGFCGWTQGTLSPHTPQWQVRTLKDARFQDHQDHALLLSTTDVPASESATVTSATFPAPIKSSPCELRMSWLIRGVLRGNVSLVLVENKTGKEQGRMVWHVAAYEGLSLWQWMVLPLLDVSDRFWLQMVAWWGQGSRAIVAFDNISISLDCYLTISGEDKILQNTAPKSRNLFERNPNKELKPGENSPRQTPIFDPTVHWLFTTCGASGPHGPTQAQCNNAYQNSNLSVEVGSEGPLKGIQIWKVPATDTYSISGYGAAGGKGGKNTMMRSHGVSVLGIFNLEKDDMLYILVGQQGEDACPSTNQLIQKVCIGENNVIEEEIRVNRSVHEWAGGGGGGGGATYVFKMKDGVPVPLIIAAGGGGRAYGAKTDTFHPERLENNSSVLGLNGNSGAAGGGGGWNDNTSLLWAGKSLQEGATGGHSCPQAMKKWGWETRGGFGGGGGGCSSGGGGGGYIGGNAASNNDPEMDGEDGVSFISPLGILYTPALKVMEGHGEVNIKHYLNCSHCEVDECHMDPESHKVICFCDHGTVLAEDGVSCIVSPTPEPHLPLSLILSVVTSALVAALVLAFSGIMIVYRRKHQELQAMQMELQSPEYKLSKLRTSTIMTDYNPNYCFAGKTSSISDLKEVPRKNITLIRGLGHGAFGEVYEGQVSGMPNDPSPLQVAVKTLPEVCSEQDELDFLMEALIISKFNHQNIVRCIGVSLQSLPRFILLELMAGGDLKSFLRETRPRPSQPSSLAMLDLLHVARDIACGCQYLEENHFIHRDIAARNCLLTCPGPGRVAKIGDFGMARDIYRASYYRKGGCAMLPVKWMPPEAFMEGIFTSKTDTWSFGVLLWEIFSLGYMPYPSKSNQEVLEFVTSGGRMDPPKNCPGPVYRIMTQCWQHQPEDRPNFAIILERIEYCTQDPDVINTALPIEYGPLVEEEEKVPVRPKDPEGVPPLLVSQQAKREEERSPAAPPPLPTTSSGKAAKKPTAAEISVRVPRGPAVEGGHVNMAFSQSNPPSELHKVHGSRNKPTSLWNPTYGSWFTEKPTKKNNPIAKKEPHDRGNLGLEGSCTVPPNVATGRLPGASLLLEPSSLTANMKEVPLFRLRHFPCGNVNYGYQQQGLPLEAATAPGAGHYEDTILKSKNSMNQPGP
Sequence of ALK (Q9UM73 19-1620): as the sequence (Q9UM73 19-1620 G1202R) above, with R1184G counted along it

Structure (SMILES) | IC50 [1] [nM] | IC50 [2] [nM] | IC50 [3] [nM] | GI50 [4] [nM] | GI50 [5] [nM] | GI50 [6] [nM] | IC50 [7] [nM]
COc1cc(N2CCC(N3CCN(CCCCCCCOc4cccc5c4C(=O)N(C4CCC(=O)NC4=O)C5=O)CC3)CC2)ccc1Nc1ncc(Cl)c(Nc2ccccc2P(C)(C)=O)n1 (centres unmarked) [Compound A10, 4-((7-(4-(1-(4-((5-chloro-4-((2-(dimethylphosphoryl)phenyl)amino)pyrimidin-2-yl)amino)-3-methoxyphenyl)piperidin-4-yl)piperazin-1-yl)heptyl)oxy)-2-(2,6-dioxopiperidin-3-yl)isoindoline-1,3-dione] | 1 to 100 | 101 to 200 | 1 to 100 | 1 to 100 | 1 to 100 | 1 to 100 | 1 to 100
COc1cc(N2CCC(N3CCN(CCCCCCCCCOc4cccc5c4C(=O)N(C4CCC(=O)NC4=O)C5=O)CC3)CC2)ccc1Nc1ncc(Cl)c(Nc2ccccc2P(C)(C)=O)n1 (centres unmarked) [Compound A11, 4-((9-(4-(1-(4-((5-chloro-4-((2-(dimethylphosphoryl)phenyl)amino)pyrimidin-2-yl)amino)-3-methoxyphenyl)piperidin-4-yl)piperazin-1-yl)nonyl)oxy)-2-(2,6-dioxopiperidin-3-yl)isoindoline-1,3-dione] | 1 to 100 | 101 to 200 | 1 to 100 | 101 to 200 | 1 to 100 | 1 to 100 | 1 to 100
COc1cc(N2CCC(N3CCN(CCCCCC#Cc4cc(F)cc5c4CN(C4CCC(=O)NC4=O)C5=O)CC3)CC2)ccc1Nc1ncc(Cl)c(Nc2ccccc2P(C)(C)=O)n1 (centres unmarked) [Compound C167, 3-(4-(7-(4-(1-(4-((5-chloro-4-((2-(dimethylphosphoryl)phenyl)amino)pyrimidin-2-yl)amino)-3-methoxyphenyl)piperidin-4-yl)piperazin-1-yl)hept-1-yn-1-yl)-6-fluoro-1-oxoisoindolin-2-yl)piperidine-2,6-dione] | 1 to 100 | 201 to 300 | 1 to 100 | 1 to 100 | – | 1 to 100 | 1 to 100
COc1cc(N2CCC(N3CCN(CCCCC#Cc4ccc5c(c4)CN(C4CCC(=O)NC4=O)C5=O)CC3)CC2)ccc1Nc1ncc(Cl)c(Nc2ccccc2P(C)(C)=O)n1 (centres unmarked) [Compound C192, 3-(5-(6-(4-(1-(4-((5-chloro-4-((2-(dimethylphosphoryl)phenyl)amino)pyrimidin-2-yl)amino)-3-methoxyphenyl)piperidin-4-yl)piperazin-1-yl)hex-1-yn-1-yl)-1-oxoisoindolin-2-yl)piperidine-2,6-dione] | 1 to 100 | 201 to 300 | 1 to 100 | – | 1 to 100 | 1 to 100 | 1 to 100
